Data as given in patent US20060009425A1, “Oral formulations of paricalcitol” (priority 2004, published 2006).

Columns and labels:
[1] = tested on: biochemical bone activity markers; test: Combined Phase 3 studies, biochemical bone activity markers; assay type: in vivo, human
Excerpt: Serum bone-specific alkaline phosphate and serum osteocalcin are considered more sensitive bone markers to evaluate degree of bone remodeling than urinary bone marker. […] These subjects received treatment with the oral formulations of the present invention or a placebo. The bone markers examined in these subjects were serum osteocalcin, serum bone-specific alkaline phosphatase, urinary pyridinoline, and deoxypyridinoline. If more than 1 biochemical bone activity marker measurement existed for a subject on a particular day, the higher measurement was considered to be that subject's biochemical bone activity marker measurement for that day. […] The Final Visit measurement was defined as the last biochemical bone activity marker measurement following the first dose of study drug.
The Week 11 Visit measurement was defined as the biochemical bone activity marker measurement on the day closest to the Week 11 scheduled visit, for which the possible measurements to choose from were those collected within 64 and 77 days following the first dose of study drug.
Changes from baseline to Week 11 Visit and to Final Visit in biochemical bone activity markers were compared between oral paricalcitol and placebo using an ANOVA with treatment as the factor on the combined Phase 3 all treated subject population (Table F). Also, the changes from baseline to Week 11 Visit and to Final Visit were compared between oral paricalcitol and placebo using an ANCOVA with baseline as the second factor on the combined Phase 3 all treated subject population (Table G).
In this example, paricalcitol capsules were evaluated in 3 double-blind, placebo-controlled multicenter studies in CKD stage 3-4 subjects with 2° HPT; 2 of these studies were conducted with TIW dosing and 1 was done with QD dosing. Subjects with eGFR (MDRD formula) 15-60 ml/min/1.73 m^2, iPTH ≧150 pg/mL, serum Ca 8.0-10.0 mg/dL and PO4≦5.2 mg/dL were randomized 1:1 and treated with paricalcitol capsule or placebo for 24 weeks. A total of 145 subjects used TIW regimen (paricalcitol: 72; placebo: 73) and 75 subjects (paricalcitol: 35; placebo: 40) used QD regimen. After the initial doses, doses were titrated based on serum Ca, P and iPTH results that were measured every 2 weeks; dose increases occurred once every 4 weeks and decreases every 2 weeks. Dosing administrations are shown below in Table 18.

[2] = tested on: serum parathyroid hormone (PTH) levels; test: Phase 3 placebo-controlled once daily study, iPTH reduction (Example 8); assay type: in vivo, human
Excerpt: Methodology: This was a Phase 3, prospective, randomized, placebo-controlled, double-blind, 24-week Treatment Phase, multi-center study in CKD (Stages 3 and 4) subjects with elevated PTH levels (≧150 pg/mL). Subjects were randomized in an equal ratio (1:1) to 1 of 2 treatment groups: Paricalcitol capsule (Group 1) and placebo (Group 2). Potential subjects underwent procedures to determine their baseline intact PTH (iPTH), calcium, and phosphorus levels for eligibility to receive treatment.
During the Treatment Phase, subjects were to self-administer study drug once daily for a total of 24 weeks. The initial dose was 1 or 2 mcg (depending on baseline iPTH levels). Procedures to be performed during the Treatment Phase included vital signs, chemistry and hematology, urinary pyridinoline, urinary deoxypyridinoline, serum bone-specific alkaline phosphatase, serum osteocalcin, urinalysis, spot urine for calcium/creatinine ratio, and recording of adverse events and concurrent medications. Serum iPTH, calcium, phosphorus, and albumin were measured every 2 weeks. Dose adjustments were to be made according to these chemistry results for iPTH, calcium, and phosphorus. Doses may have been increased in 1 mcg increments every 4 weeks. Dose reductions were to occur according to a protocol-specified algorithm. However, dosing could have been adjusted any time if, in the judgment of the Investigator, a risk to subject safety existed.
Efficacy: The primary efficacy endpoint was the achievement of 2 consecutive >30% decreases from baseline iPTH levels.
The secondary efficacy analyses include change and percent change from baseline analyses in iPTH and change from baseline analyses in biochemical bone activity markers.
The Intent-To-Treat population (Full Analysis Set) was defined as all randomized subjects with a baseline iPTH and at least 2 on-treatment iPTH measurements. This population was used in the primary efficacy analysis.

[3] = Phase 3 studies combined, all treated subjects
[4] = Phase 3 studies combined, all treated subjects, listed as Oral Paricalcitol
[5] = Phase 3 studies combined, all treated subjects, listed as oral paricalcitol
[6] = Phase 3 studies, TIW Treatment Regimen

C[C@H](/C=C/[C@H](C)C(C)(C)O)[C@H]1CC[C@H]2/C(=C/C=C3C[C@@H](O)C[C@H](O)C3)CCC[C@]12C [Paricalcitol, 19-nor-1α,3β,25-trihydroxy-9,10-secoergosta-5(Z); 7(E),22(E)-triene]
Serum Osteocalcin, Change from Baseline (SE) to Week 11 [1, 3]: −3.94 (2.431) ng/mL | Urinary Deoxypyridinoline, Change from Baseline (SE) to Final [1, 3]: −0.0058 (0.00514) nmol/mg Creat | Urinary Pyridinoline, Change from Baseline (SE) to Week 11 [1, 3]: −5.21 (1.938) nmol/mmol Creat | Serum Bone-Specific Alkaline Phosphatase, Change from Baseline (SE) to Final [1, 4]: −7.890 (0.7596) mcg/L | Serum Bone-Specific Alkaline Phosphatase, Change from Baseline (SE) to Week 11 [1, 4]: −5.024 (0.6279) mcg/L | Serum Osteocalcin, Change from Baseline (SE) to Final [1, 4]: −21.64 (2.706) ng/mL | Urinary Deoxypyridinoline, Change from Baseline (SE) to Week 11 [1, 4]: −0.0155 (0.00433) nmol/mg Creat | Urinary Pyridinoline, Change from Baseline (SE) to Final [1, 4]: −3.61 (1.896) nmol/mmol Creat | Serum Bone-Specific Alkaline Phosphatase, Change from Baseline (SE) to Final [1, 5]: -7.89 µg/L | Serum Bone-Specific Alkaline Phosphatase, Change from Baseline (SE) to Week 11 [1, 5]: -5.024 µg/L | Serum Osteocalcin, Change from Baseline (SE) to Final [1, 5]: -21.64 ng/mL | Urinary Deoxypyridinoline, Change from Baseline (SE) to Week 11 [1, 5]: −0.0155 nmol/mg Creat | Urinary Pyridinoline, Change from Baseline (SE) to Final [1, 5]: −3.61 nmol/mmol Creat | Serum Bone-Specific Alkaline Phosphatase, Change from Baseline (SE) to Final [1, 6]: −8.043 (0.9033) mcg/L | Serum Bone-Specific Alkaline Phosphatase, Change from Baseline (SE) to Week 11 [1, 6]: −4.869 (0.7835) mcg/L | Serum Osteocalcin, Change from Baseline (SE) to Final [1, 6]: −18.96 (2.944) ng/mL | Serum Osteocalcin, Change from Baseline (SE) to Week 11 [1, 6]: −5.53 (2.720) ng/mL | Urinary Deoxypyridinoline, Change from Baseline (SE) to Final [1, 6]: −0.0130 (0.00357) nmol/mg Creat | Urinary Deoxypyridinoline, Change from Baseline (SE) to Week 11 [1, 6]: −0.0129 (0.00426) nmol/mg Creat | Urinary Pyridinoline, Change from Baseline (SE) to Final [1, 6]: −5.47 (1.789) nmol/mmol Creat | Urinary Pyridinoline, Change from Baseline (SE) to Week 11 [1, 6]: −5.19 (2.213) nmol/mmol Creat | Bone Spec. Alk Phos, Mean Change from Baseline ([1]; QD Regimen, N = 33 (Table 20)): −7.6 (1.40) mcg/L | Serum Osteocalcin, Mean Change from Baseline ([1]; QD Regimen, N = 33 (Table 20)): −27.1 (5.54) ng/mL | Serum Osteocalcin, Mean Change from Baseline ([1]; TIW Regimen, N = 67 (Table 20)): −19.0 (2.94) ng/mL | Bone Spec. Alk Phos, Mean Change from Baseline ([1]; TIW Regimen, N = 68 (Table 20)): −8.0 (0.90) mcg/L | subjects with 4 consecutive ≧30% decreases from baseline in iPTH ([2]; 23/33, exploratory analysis): 70% | subjects with 2 consecutive ≧30% decreases from baseline in iPTH ([2]; 30/33, once daily, 24 weeks, CKD Stages 3 and 4): 91% | maximum decrease from baseline in iPTH ([2]; observed at Week 23): −52.4% | 30% mean reduction in iPTH occurred by ([2]; once daily): ≤ 7 Week | mean change from baseline in iPTH at the Final Visit ([2]; once daily, 24 weeks): -46.9 pg/mL | mean change from baseline in iPTH at the Last On-Treatment Visit ([2]; once daily, 24 weeks): -130.8 pg/mL | percent decrease in iPTH at the Final Visit ([2]; once daily, 24 weeks): 15.2% | percent decrease in iPTH at the Last On-Treatment Visit ([2]; once daily, 24 weeks): 50.0%
